The text below walks through data of patent publication US20160175249A1, “Liposomes Containing Oligopeptide Fragments of Myelin Basic Protein, a Pharmaceutical Composition and a Method for Treatment of Multiple Sclerosis” (LIPOXEN TECHNOLOGIES LIMITED, priority 2009, published 2016).

Assay [1] concerns experimental allergic encephalomyelitis (EAE) in DA rats. The assay can be described thus: Treatment of EAE in DA rats with liposomally encapsulated MBP peptides (Example 5). It is filed as in vivo. Conditions: 150 μg per animal daily subdermally days 6-11, score 0-5. As for the experimental part: To induce experimental allergic encephalomyelitis (EAE) in DA rats having a mass of 220-250 g ([…]), 10 μg of myelin basic protein encephalogenic peptide fragment ARTTHYGSLPQKSQRSQ (SEQ ID NO:4; Anaspec, US) emulsified in Freund's complete adjuvant (Difco, US) at a concentration of 10% (m/v) was subdermally injected into the forepaw. The rats were weighted and monitored for EAE neurological symptoms daily. The EAE symptom profile of each rate was scored according to the following scale: (0)—absence of EAE symptoms; (1)—decrease in tail tonicity; (2)—decrease in righting reflex; (3)—paresis; (4)—full paralysis; and (5)—agony or death. Intermediary symptoms were scored by increasing or decreasing the value by 0.5 units. Six days after EAE induction, animals were randomly distributed into several groups (12 animals each).
Between days six and eleven after induction, rats in each respective group were subdermally injected with the liposomal preparation described in Example 2 (emulsified in phosphate saline solution, pH 7.4), a positive control preparation of glatiramer acetate (GA; copaxone, Teva Pharmaceutical Industries Ltd, Israel), a prototype peptide: DENPVVIIFFKNIVTPRT (SEQ ID NO:5), or a buffered phosphate saline solution (pH 7.4) placebo. The peptide, Glatiramer acetate, and liposomal preparations were formulated immediately prior to administration using buffered phosphate saline solution (pH 7.4). 0.1 mL of each composition was administered daily at a concentration of 150 μg per animal.

For the next assay, the system named is EAE-induced DA rats. Nature of the assay: EAE-induced DA rat model, paralysis score and mortality (DA-EAE-28-01, Example 12). Type of assay: in vivo. Conditions: 54 EAE induced DA rats; daily s.c. injection, 6 total; peptide dose 50 μg (mixtures 150 μg); deaths/N. As for the experimental part: Each of the seven formulations being evaluated was provided as a lyophilized powder and stored at 4° C. Rehydration of each daily group dose was done with water for injection according to Table 6. MBP peptide formulations were re-suspended in water for injection (Cure Medical) and copaxone (Teva LTD) was diluted with Saline to a final concentration of 150 μg/mL. Each subject animal was administered the test formulation for 6 consecutive days by subcutaneous injection.
9 week old Dark Agouti (DA) female rats (Harlan Laboratories, Inc.), weighing between 125 and 145 grams were used as the test subjects. The health status of the animals used in this study was examined on arrival. Only animals in good health were acclimatized to laboratory conditions and were used in the study. Animals were provided Protein Rodent Diet (Teklad) ad libitum and free access to drinking water. Animals were housed in a controlled environment at between 20° C. and 24° C. with a relative humidity of 30-70% and a 12 hr light/12 hr dark cycle. Animals were randomly assigned to their respective test group. This study was performed following the review by the Committee for Ethical Conduct in the Care and Use of Laboratory Animals of the Assaf Harofeh medical center, Beer Yaakov, Ethical Committee number: 68/2009.
For induction of EAE, rats were intradermally injected at the base of the tail with a total volume of 200 μl of inoculum containing 50 μg of MBP(63-81) (ANASPEC), in saline mixed (1:1) with CFA, (IFA, Sigma) and 1 mg Mt (strain H37 RA; Difco Laboratories, Detroit, Mich.).
The rats were evaluated up daily starting 24 hours after immunization. […]
7-10 days post EAE induction, 54 animals were divided to 9 groups (6 rats in each), and blood was collected from 2 rats of each group before the initiation of the treatment. […] The animals were maintained and evaluated until day 28th post EAE-induction. […]
Animals were observed individually and clinical signs were recorded once daily during all study periods. […] The body weight of each animals was determined daily during all study periods. […]

As for glatiramer acetate [copaxone], the “Evaluation of EAE symptom intensity, average” value (“Evaluation” below) in assay [1] (day 0 after EAE induction), in assay [1] (day 1 after EAE induction), in assay [1] (day 2 after EAE induction), in assay [1] (day 3 after EAE induction), in assay [1] (day 4 after EAE induction) and in assay [1] (day 5 after EAE induction) was 0.00 in each case. Also, the “Evaluation” value in assay [1] (day 6 after EAE induction) is given as 0.00; in assay [1] (day 7 after EAE induction), 0.00; in assay [1] (day 8 after EAE induction), 0.50; in assay [1] (day 9 after EAE induction), 1.67; in assay [1] (day 10 after EAE induction) it was 2.17; in assay [1] (day 11 after EAE induction) it was 2.25. For the same substance, the “Evaluation” value in assay [1] (day 12 after EAE induction) turned out to be 2.25; in assay [1] (day 13 after EAE induction) it was 2.83; in assay [1] (day 14 after EAE induction), 2.75; in assay [1] (day 15 after EAE induction), 2.33; in assay [1] (day 16 after EAE induction), 2.08; in assay [1] (day 17 after EAE induction), 2.17. The “Evaluation” value in assay [1] (day 18 after EAE induction) was 2.17; in assay [1] (day 19 after EAE induction) it was 1.75; in assay [1] (day 20 after EAE induction), 1.67; in assay [1] (day −1 after EAE induction), 0.00. Further, the “Mortality Rate” value with EAE-induced DA rats is listed as 2/6.
